Test results published in the supplement of paper PMC10307832.

Legend:
Assay in all cases: relative viability (nuclei count vs DMSO), 5 days (fraction); higher = more cells survive
NCI-H1437 = test system: NCI-H1437
In short: (§1)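 Medians of duplicate plates are given as relative viability. That measure is the nuclei count in treated wells divided by the count in vehicle wells. Counts were taken on 4× images of lung cancer cell lines in 1536-well plates, 5 days after pin-tool dosing the day after seeding with one drug alone or a fixed anchor-drug dose plus five library-drug doses (not always all listed) in √10 steps.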

CAL-12T = test system: CAL-12T
In short: as §1

NCI-H460 = test system: NCI-H460
In short: as §1

NCI-H1755 = test system: NCI-H1755
In short: as §1

EMC-BAC-2 = test system: EMC-BAC-2
In short: as §1

LCLC-103H = test system: LCLC-103H
In short: as §1

HCC-366 = test system: HCC-366
In short: as §1

NCI-H727 = test system: NCI-H727
In short: as §1

NCI-H2009 = test system: NCI-H2009
In short: as §1

NCI-H2228 = test system: NCI-H2228
In short: as §1

SK-LU-1 = test system: SK-LU-1
In short: as §1

NCI-H1395 = test system: NCI-H1395
In short: as §1

NCI-H1915 = test system: NCI-H1915
In short: as §1

NCI-H23 = test system: NCI-H23
In short: as §1

HOP-62 = test system: HOP-62
In short: as §1

NCI-H1355 = test system: NCI-H1355
In short: as §1

SW 1573 = test system: SW 1573
In short: as §1

HCC-827 = test system: HCC-827
In short: as §1

NCI-H1975 = test system: NCI-H1975
In short: as §1

A-427 = test system: A-427
In short: as §1

COR-L 105 = test system: COR-L 105
In short: as §1

HARA = test system: HARA
In short: as §1

SMILES: C[C@@H]1CN(CC(=O)Nc2ccc3c(c2)Cc2cccc(-c4cc(=O)cc(N5CCOCC5)o4)c2S3)C[C@H](C)O1 + COc1cc2c(Oc3ccc(NC(=O)C4(C(=O)Nc5ccc(F)cc5)CC4)cc3F)ccnc2cc1OCCCN1CCOCC1 [Foretinib] (partner 0.25 µM)
- relative viability (NCI-H1437; first compound 0.04 µM): 1.25
- relative viability (NCI-H1437; first compound 0.1265 µM): 1.26
- relative viability (NCI-H1437; first compound 0.4 µM): 1.29
- relative viability (NCI-H1437; first compound 4 µM): 0.957
- relative viability (CAL-12T; first compound 0.04 µM): 1.13
- relative viability (CAL-12T; first compound 0.1265 µM): 1.06
- relative viability (CAL-12T; first compound 0.4 µM): 1.01
- relative viability (CAL-12T; first compound 4 µM): 0.764
- relative viability (NCI-H460; first compound 0.04 µM): 0.898
- relative viability (NCI-H460; first compound 0.1265 µM): 1.02
- relative viability (NCI-H460; first compound 0.4 µM): 1.1
- relative viability (NCI-H460; first compound 4 µM): 0.862
- relative viability (NCI-H1755; first compound 0.04 µM): 0.914
- relative viability (NCI-H1755; first compound 0.1265 µM): 0.887
- relative viability (NCI-H1755; first compound 0.4 µM): 0.875
- relative viability (NCI-H1755; first compound 4 µM): 0.798
- relative viability (EMC-BAC-2; first compound 0.04 µM): 1.08
- relative viability (EMC-BAC-2; first compound 0.1265 µM): 1.04
- relative viability (EMC-BAC-2; first compound 0.4 µM): 0.998
- relative viability (EMC-BAC-2; first compound 4 µM): 0.92
- relative viability (LCLC-103H; first compound 0.04 µM): 0.777
- relative viability (LCLC-103H; first compound 0.1265 µM): 0.671
- relative viability (LCLC-103H; first compound 0.4 µM): 0.671
- relative viability (LCLC-103H; first compound 4 µM): 0.608
- relative viability (HCC-366; first compound 0.04 µM): 0.922
- relative viability (HCC-366; first compound 0.1265 µM): 0.929
- relative viability (HCC-366; first compound 0.4 µM): 1.1
- relative viability (HCC-366; first compound 4 µM): 0.913
- relative viability (NCI-H727; first compound 0.04 µM): 0.98
- relative viability (NCI-H727; first compound 0.1265 µM): 0.783
- relative viability (NCI-H727; first compound 0.4 µM): 0.826
- relative viability (NCI-H727; first compound 4 µM): 1
- relative viability (NCI-H2009; first compound 0.04 µM): 1.35
- relative viability (NCI-H2009; first compound 0.1265 µM): 1.18
- relative viability (NCI-H2009; first compound 0.4 µM): 1.15
- relative viability (NCI-H2009; first compound 4 µM): 0.967
- relative viability (NCI-H2228; first compound 0.04 µM): 0.82
- relative viability (NCI-H2228; first compound 0.1265 µM): 0.689
- relative viability (NCI-H2228; first compound 0.4 µM): 0.726
- relative viability (NCI-H2228; first compound 4 µM): 0.816
- relative viability (SK-LU-1; first compound 0.04 µM): 0.813
- relative viability (SK-LU-1; first compound 0.1265 µM): 0.831
- relative viability (SK-LU-1; first compound 0.4 µM): 0.859
- relative viability (SK-LU-1; first compound 4 µM): 0.565
- relative viability (NCI-H1395; first compound 0.04 µM): 1.06
- relative viability (NCI-H1395; first compound 0.1265 µM): 1.07
- relative viability (NCI-H1395; first compound 0.4 µM): 0.982
- relative viability (NCI-H1395; first compound 4 µM): 0.866
- relative viability (NCI-H1915; first compound 0.04 µM): 1.06
- relative viability (NCI-H1915; first compound 0.1265 µM): 1.13
- relative viability (NCI-H1915; first compound 0.4 µM): 1.03
- relative viability (NCI-H1915; first compound 4 µM): 1.05
- relative viability (NCI-H23; first compound 0.04 µM): 0.95
- relative viability (NCI-H23; first compound 0.1265 µM): 0.85
- relative viability (NCI-H23; first compound 0.4 µM): 0.945
- relative viability (NCI-H23; first compound 4 µM): 0.844
- relative viability (HOP-62; first compound 0.04 µM): 0.924
- relative viability (HOP-62; first compound 0.1265 µM): 1.08
- relative viability (HOP-62; first compound 0.4 µM): 1.13
- relative viability (HOP-62; first compound 4 µM): 0.9
- relative viability (NCI-H1355; first compound 0.04 µM): 0.95
- relative viability (NCI-H1355; first compound 0.1265 µM): 0.964
- relative viability (NCI-H1355; first compound 0.4 µM): 0.951
- relative viability (NCI-H1355; first compound 4 µM): 0.858
- relative viability (SW 1573; first compound 0.04 µM): 0.683
- relative viability (SW 1573; first compound 0.1265 µM): 0.946
- relative viability (SW 1573; first compound 0.4 µM): 0.936
- relative viability (SW 1573; first compound 4 µM): 0.999
- relative viability (HCC-827; first compound 0.04 µM): 1.08
- relative viability (HCC-827; first compound 0.1265 µM): 1
- relative viability (HCC-827; first compound 0.4 µM): 1.08
- relative viability (HCC-827; first compound 4 µM): 0.939
- relative viability (NCI-H1975; first compound 0.04 µM): 0.978
- relative viability (NCI-H1975; first compound 0.1265 µM): 0.782
- relative viability (NCI-H1975; first compound 0.4 µM): 0.996
- relative viability (NCI-H1975; first compound 4 µM): 0.765
- relative viability (A-427; first compound 0.04 µM): 1.05
- relative viability (A-427; first compound 0.1265 µM): 1.17
- relative viability (A-427; first compound 0.4 µM): 1.11
- relative viability (A-427; first compound 4 µM): 1.22
- relative viability (COR-L 105; first compound 0.04 µM): 1.39
- relative viability (COR-L 105; first compound 0.1265 µM): 0.971
- relative viability (COR-L 105; first compound 0.4 µM): 1.17
- relative viability (COR-L 105; first compound 4 µM): 0.701
- relative viability (HARA; first compound 0.1265 µM): 0.757
- relative viability (HARA; first compound 0.4 µM): 0.891
- relative viability (HARA; first compound 4 µM): 0.879
